“And” between values parts separate entries of the source, which are not always exact repeats. Equal values may be shown once.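 Tested at 5 concentrations; 48 h exposure; 96-well plates; endpoints linearly interpolated, else capped at highest concentration. GI50 marks 50% less growth.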 The source made the active and inactive calls. No stated cut-off is given here; in the data, active = GI50 up to about 1.1 µM and inactive = higher.
How the values were obtained:
Experiment in all cases: NCI-60 cell line screen, 48 h
Hs-578T = test system: Hs-578T
MDA-MB-435 = test system: MDA-MB-435
SF-268 = test system: SF-268
SK-OV-3 = test system: SK-OV-3
HOP-62 = test system: HOP-62
OVCAR-5 = test system: OVCAR-5
SNB-19 = test system: SNB-19
SW-620 = test system: SW-620
A498 = test system: A498
KM12 = test system: KM12
SNB-75 = test system: SNB-75
SF-295 = test system: SF-295
NCI-H460 = test system: NCI-H460
UACC-257 = test system: UACC-257
HL-60 = test system: HL-60
NCI-H226 = test system: NCI-H226
MDA-N = test system: MDA-N
DU-145 = test system: DU-145
UACC-62 = test system: UACC-62
TK-10 = test system: TK-10
SN12C = test system: SN12C
MDA-MB-231 = test system: MDA-MB-231
OVCAR-3 = test system: OVCAR-3
OVCAR-8 = test system: OVCAR-8
IGROV-1 = test system: IGROV-1
PC-3 = test system: PC-3
HCT-15 = test system: HCT-15
M14 = test system: M14
SF-539 = test system: SF-539
EKVX = test system: EKVX
HCT-116 = test system: HCT-116
SR = test system: SR
A549 = test system: A549
ACHN = test system: ACHN
SK-MEL-2 = test system: SK-MEL-2
786-0 = test system: 786-0
MOLT-4 = test system: MOLT-4
MCF7 = test system: MCF7
HT-29 = test system: HT-29
LOX IMVI = test system: LOX IMVI
NCI-H522 = test system: NCI-H522
RPMI-8226 = test system: RPMI-8226
K562 = test system: K562
U-251 = test system: U-251
NCI/ADR-RES = test system: NCI/ADR-RES
SK-MEL-28 = test system: SK-MEL-28
UO-31 = test system: UO-31
T47D = test system: T47D
HOP-92 = test system: HOP-92
OVCAR-4 = test system: OVCAR-4
CAKI-1 = test system: CAKI-1
CCRF-CEM = test system: CCRF-CEM
Malme-3M = test system: Malme-3M
NCI-H23 = test system: NCI-H23
SK-MEL-5 = test system: SK-MEL-5
COLO 205 = test system: COLO 205
RXF 393 = test system: RXF 393
HCC 2998 = test system: HCC 2998

Structure (SMILES): COC(=O)C1=COC(C)C2CN3CCc4c([nH]c5ccccc45)C3CC12 (stereo not given)
- GI50 (Hs-578T): 49 µM (inactive) and 26 µM (inactive)
- GI50 (MDA-MB-435): 52.1 µM (inactive)
- GI50 (SF-268): 54.1 µM (inactive)
- GI50 (SK-OV-3): 58.7 µM (inactive)
- GI50 (HOP-62): > 100 µM (inactive) and 55.1 µM (inactive)
- GI50 (OVCAR-5): > 100 µM (inactive)
- GI50 (SNB-19): 84.5 µM (inactive)

Structure (SMILES): CNc1cc([N+](=O)[O-])ccc1C(=O)N1CCC[C@H]1CO
- GI50 (SW-620): > 100 µM (inactive)
- GI50 (A498): > 100 µM (inactive)
- GI50 (KM12): > 100 µM (inactive)
- GI50 (SNB-75): > 100 µM (inactive)
- GI50 (SF-295): > 100 µM (inactive)
- GI50 (NCI-H460): > 100 µM (inactive)
- GI50 (MDA-MB-435): > 100 µM (inactive)
- GI50 (UACC-257): > 100 µM (inactive)
- GI50 (HL-60): > 100 µM (inactive)
- GI50 (SF-268): 8.83 µM (inactive)
- GI50 (NCI-H226): > 100 µM (inactive)
- GI50 (MDA-N): > 100 µM (inactive)
- GI50 (DU-145): > 100 µM (inactive)
- GI50 (UACC-62): > 100 µM (inactive)
- GI50 (SK-OV-3): > 100 µM (inactive)
- GI50 (TK-10): > 100 µM (inactive)
- GI50 (SN12C): > 100 µM (inactive)
- GI50 (MDA-MB-231): > 100 µM (inactive)
- GI50 (OVCAR-3): > 100 µM (inactive)
- GI50 (OVCAR-8): > 100 µM (inactive)
- GI50 (IGROV-1): > 100 µM (inactive)
- GI50 (PC-3): > 100 µM (inactive)
- GI50 (HCT-15): > 100 µM
- GI50 (M14): > 100 µM (inactive)
- GI50 (SF-539): > 100 µM (inactive)
- GI50 (EKVX): > 100 µM (inactive)
- GI50 (HCT-116): > 100 µM (inactive)
- GI50 (SR): 44.3 µM (inactive)
- GI50 (A549): > 100 µM (inactive)
- GI50 (ACHN): > 100 µM (inactive)
- GI50 (HOP-62): > 100 µM (inactive)
- GI50 (SK-MEL-2): > 100 µM (inactive)
- GI50 (786-0): > 100 µM (inactive)
- GI50 (MOLT-4): > 100 µM (inactive)
- GI50 (OVCAR-5): > 100 µM (inactive)
- GI50 (SNB-19): > 100 µM (inactive)
- GI50 (MCF7): > 100 µM (inactive)
- GI50 (HT-29): > 100 µM (inactive)
- GI50 (LOX IMVI): > 100 µM (inactive)
- GI50 (NCI-H522): > 100 µM (inactive)
- GI50 (RPMI-8226): > 100 µM (inactive)
- GI50 (K562): > 100 µM (inactive)
- GI50 (U-251): > 100 µM (inactive)
- GI50 (NCI/ADR-RES): > 100 µM (inactive)
- GI50 (SK-MEL-28): > 100 µM (inactive)
- GI50 (UO-31): > 100 µM (inactive)
- GI50 (T47D): > 100 µM (inactive)
- GI50 (HOP-92): > 100 µM (inactive)

Structure (SMILES): O=C(/N=C1\SCCN1C(=O)C(C(F)(F)F)C(F)(F)F)C(C(F)(F)F)C(F)(F)F
- GI50 (SW-620): > 100 µM (inactive)
- GI50 (A498): > 100 µM (inactive)
- GI50 (SF-295): > 100 µM (inactive)
- GI50 (NCI-H460): > 100 µM (inactive)
- GI50 (MDA-MB-435): > 100 µM (inactive)
- GI50 (OVCAR-4): > 100 µM (inactive)
- GI50 (UACC-257): > 100 µM (inactive)
- GI50 (HL-60): > 100 µM (inactive)
- GI50 (CAKI-1): > 100 µM (inactive)
- GI50 (CCRF-CEM): > 100 µM (inactive)
- GI50 (NCI-H226): > 100 µM (inactive)
- GI50 (Malme-3M): > 100 µM (inactive)
- GI50 (SK-OV-3): > 100 µM (inactive)
- GI50 (TK-10): > 100 µM (inactive)
- GI50 (MDA-MB-231): > 100 µM (inactive)
- GI50 (OVCAR-3): > 100 µM (inactive)
- GI50 (NCI-H23): > 100 µM (inactive)
- GI50 (OVCAR-8): > 100 µM (inactive)
- GI50 (IGROV-1): > 100 µM (inactive)
- GI50 (PC-3): > 100 µM (inactive)
- GI50 (HCT-15): > 100 µM
- GI50 (M14): > 100 µM (inactive)
- GI50 (SF-539): > 100 µM (inactive)
- GI50 (EKVX): > 100 µM (inactive)
- GI50 (SK-MEL-5): > 100 µM (inactive)
- GI50 (HCT-116): > 100 µM (inactive)
- GI50 (SR): > 100 µM (inactive)
- GI50 (A549): > 100 µM (inactive)
- GI50 (ACHN): > 100 µM (inactive)
- GI50 (HOP-62): > 100 µM (inactive)
- GI50 (SK-MEL-2): > 100 µM (inactive)
- GI50 (786-0): > 100 µM (inactive)
- GI50 (COLO 205): > 100 µM (inactive)
- GI50 (MOLT-4): > 100 µM (inactive)
- GI50 (OVCAR-5): > 100 µM (inactive)
- GI50 (SNB-19): > 100 µM (inactive)
- GI50 (MCF7): > 100 µM (inactive)
- GI50 (HT-29): > 100 µM (inactive)
- GI50 (LOX IMVI): > 100 µM (inactive)
- GI50 (NCI-H522): > 100 µM (inactive)
- GI50 (RPMI-8226): > 100 µM (inactive)
- GI50 (K562): > 100 µM (inactive)
- GI50 (RXF 393): > 100 µM (inactive)
- GI50 (U-251): > 100 µM (inactive)
- GI50 (NCI/ADR-RES): > 100 µM (inactive)
- GI50 (SK-MEL-28): > 100 µM (inactive)
- GI50 (UO-31): > 100 µM (inactive)
- GI50 (HCC 2998): > 100 µM (inactive)
- GI50 (HOP-92): > 100 µM (inactive)

Structure (SMILES): C=CCOC(=O)CCCCCCCCCCCCCCCOC(=O)C1=C(CCC[C@@H](C)O[Si](C)(C)C(C)(C)C)N=C(N)N2[C@H](CC3(CC/C=C\[C@H](CC)O[Si](C(C)C)(C(C)C)C(C)C)OCCO3)CC[C@@H]12
- GI50 (A498): > 100 µM (inactive)
- GI50 (SNB-75): 83.8 µM (inactive)
- GI50 (OVCAR-4): > 100 µM (inactive)
- GI50 (NCI-H226): > 100 µM (inactive)
- GI50 (DU-145): > 100 µM (inactive)
- GI50 (SK-OV-3): > 100 µM (inactive)
- GI50 (TK-10): > 100 µM (inactive)
- GI50 (SN12C): > 100 µM (inactive)
- GI50 (MDA-MB-231): > 100 µM (inactive)
- GI50 (ACHN): > 100 µM (inactive)
- GI50 (SK-MEL-2): > 100 µM (inactive)
- GI50 (SNB-19): > 100 µM (inactive)
- GI50 (MCF7): 31.9 µM (inactive)
- GI50 (K562): < 0.01 µM (active)
- GI50 (SK-MEL-28): > 100 µM (inactive)
- GI50 (UO-31): 63.5 µM (inactive)
- GI50 (T47D): > 100 µM (inactive)
- GI50 (HCC 2998): 49.3 µM (inactive)

Structure (SMILES): CCSc1[nH]c(Nc2nc(-c3ccccc3)n(-c3ccccc3)n2)c(C(N)=O)c1C(N)=O
- GI50 (SW-620): > 10 µM (inactive)
- GI50 (KM12): > 10 µM (inactive)
- GI50 (SNB-75): 9.44 µM (inactive)
- GI50 (SF-295): 9.62 µM (inactive)
- GI50 (MDA-MB-435): > 10 µM (inactive)
- GI50 (OVCAR-4): 5.28 µM (inactive)
- GI50 (UACC-257): > 10 µM (inactive)
- GI50 (HL-60): > 10 µM (inactive)
- GI50 (SF-268): > 10 µM (inactive)
- GI50 (CAKI-1): > 10 µM (inactive)
- GI50 (CCRF-CEM): > 10 µM (inactive)
- GI50 (MDA-N): > 10 µM (inactive)
- GI50 (Malme-3M): > 10 µM (inactive)
- GI50 (DU-145): > 10 µM (inactive)
- GI50 (UACC-62): > 10 µM (inactive)
- GI50 (SK-OV-3): > 10 µM (inactive)
- GI50 (TK-10): > 10 µM (inactive)
- GI50 (SN12C): > 10 µM (inactive)
- GI50 (MDA-MB-231): > 10 µM (inactive)
- GI50 (NCI-H23): > 10 µM (inactive)
- GI50 (OVCAR-8): 6.64 µM (inactive)
- GI50 (IGROV-1): > 10 µM (inactive)
- GI50 (PC-3): > 10 µM (inactive)
- GI50 (HCT-15): > 10 µM
- GI50 (M14): > 10 µM (inactive)
- GI50 (EKVX): > 10 µM (inactive)
- GI50 (SK-MEL-5): > 10 µM (inactive)
- GI50 (SR): > 10 µM (inactive)
- GI50 (A549): > 10 µM (inactive)
- GI50 (HOP-62): > 10 µM (inactive)
- GI50 (786-0): > 10 µM (inactive)
- GI50 (COLO 205): > 10 µM (inactive)
- GI50 (MOLT-4): > 10 µM (inactive)
- GI50 (MCF7): > 10 µM (inactive)
- GI50 (HT-29): > 10 µM (inactive)
- GI50 (LOX IMVI): > 10 µM (inactive)
- GI50 (RPMI-8226): > 10 µM (inactive)
- GI50 (K562): > 10 µM (inactive)
- GI50 (RXF 393): 6.5 µM (inactive)
- GI50 (SK-MEL-28): > 10 µM (inactive)
- GI50 (T47D): > 10 µM (inactive)
- GI50 (HCC 2998): > 10 µM (inactive)
- GI50 (HOP-92): > 10 µM (inactive)
